According to a melting point compilation (Tetko et al.; mined from patent text by program, amines drawn as free bases though some values may be those of a salt):

First: CC(=O)OC1COC(NNC(=O)C(F)(F)F)C(OC(C)=O)C1OC(C)=O (centres undefined)
Second: CCS(=O)(=O)N[C@@H]1CCCC[C@H]1OCC(=O)O (relative stereo)
The melting point of the first is lower: 106 °C for the first, 120 to 122 °C for the second.

First: COc1ccc(-c2c(-c3ccccc3)c(Sc3ccc4c(c3)CC[C@H]3N(C)C(=O)CC[C@]43C)nc3ccccc23)cc1
Second: CC(=O)N1CCc2nc(Nc3nc(-c4ccccc4)cs3)nc(-c3ccccc3)c2C1
The melting point of the first is higher: 239 to 242 °C for the first, 130 to 132 °C for the second.

Compared with `NC(=O)c1ccccc1NC(=S)NC(=O)c1ccccc1`, `COC(=O)c1ccc(C(=O)OC)c(Nc2ccccc2)c1` is lower in melting point: 190 to 192 °C for the first, 85 to 87 °C for the second.

Compared with `O=C(Nc1ccccc1)N1CCC(C2Oc3ccccc3Cn3cccc32)CC1` (centres undefined), `O=C(Nc1ccc(C(=O)N2CCCc3ccccc32)cc1)c1ccc(CO)cc1` is higher in melting point: 167 to 170 °C for the first, 224 to 226 °C for the second.

Compared with `COc1cccc(NC(=O)NCC(=O)N(CC(=O)OC(C)(C)C)c2ccccc2C(=O)c2ccccc2)c1`, `CC(C)(C)NS(=O)(=O)c1ccccc1-c1ccc(NC(=O)N(Cc2cccc(C(=N)N)c2)c2ccccc2)cc1` is lower in melting point: 153 to 155 °C for the first, 140 to 141 °C for the second.

First: CCc1cnc2c(C#N)cnn2c1-c1cccc(C(F)(F)F)c1
Second: COc1ccc(/C=C(\C#N)c2ccc(C(F)(F)F)cc2)cc1OC1CCCC1
The melting point of the first is higher: 135 to 137 °C for the first, 96 to 99 °C for the second.

First: Cc1cccc(C)c1NC(=O)N=C1CCC(C)N1C (centres undefined)
Second: CC(=O)NC[C@@H]1C[C@H]1c1cccc2nn(C)c(F)c12 (relative stereo)
The melting point of the first is higher: 120 to 122 °C for the first, 109 to 111 °C for the second.

`O=C1CC(NC(=O)C2CCCN3C(=O)CCC(NC(=O)c4ccc5c(c4)OCO5)C(=O)N23)C(OCc2ccccc2)O1` (centres undefined) and `COC(=O)COc1cc2c(c3c1cc(C)n3Cc1ccccc1)CCC2` cannot be ordered by melting point: 135 to 140 °C for the first, 135 to 138 °C for the second.

Compared with `CCOC(=O)c1cnn(-c2ccc(OC)cc2)c1Cl`, `COc1ccc(Nc2ccccc2C(=O)CS(C)=O)cc1` (centres undefined) is higher in melting point: 100 to 101 °C for the first, 115 to 116 °C for the second.

Compared with `COCOc1ccc(Cl)c(F)c1C=O`, `COc1ccc(Nc2nc(Cl)nc(OCC3CCCCC3)n2)cc1F` is higher in melting point: 44 to 49 °C for the first, 98 °C for the second.

Compared with `Cc1c(F)cccc1Cc1c(-c2ccccc2)c2ccccn2c1C(=O)N1CCN(C(=O)OC(C)(C)C)[C@@H](CCO[Si](C)(C)C(C)(C)C)C1`, `CCOCC(=O)Nc1ccc(Br)c(-n2nc(CC)n(Cc3ccc(-c4ccccc4S(=O)(=O)NC(=O)OC(C)(C)C)cc3F)c2=O)c1` is higher in melting point: 70 °C for the first, 132 to 134 °C for the second.

`Clc1cccc(Cl)c1CN1CCNc2ncc(I)cc21` and `N=C(NO)c1nc2cnc3ccc(Cl)cc3c2n1-c1ccccc1Cl` cannot be ordered by melting point: > 200 °C for the first, 265 to 267 °C for the second.

`CC(C)(C)c1cc(-c2nn(CC3COC(=O)O3)c3ncccc23)cc(C(C)(C)C)c1O` (centres undefined) and `CC[C@@H](Nc1nc(NCc2cccnc2)c2ncn(C(C)C)c2n1)C(C)(C)O` cannot be ordered by melting point: 140 to 141 °C for the first, 138 to 145 °C for the second.

First: CCOC(=O)C(Cc1ccc(O)cc1)Oc1ccc(F)cc1 (centres undefined)
Second: COc1ccc(CCNC(=O)COc2ccc(C[C@H](OC)C(=O)O)cc2)cc1
The melting point of the first is lower: 80 to 81 °C for the first, 97 to 98 °C for the second.

First: Cc1cccnc1S(=O)(=O)NC(C)(C)C
Second: Cc1nc2cccc3n(CCCCNS(C)(=O)=O)c(=O)c1n23
The melting point of the first is lower: 107 to 110 °C for the first, 166 to 167 °C for the second.

First: CNc1cc(F)ccc1C(=O)Cc1nnn[nH]1
Second: O=C(O)c1ccc(I)cc1F
The melting point of the first is higher: 214 to 216 °C for the first, 158 to 159 °C for the second.

Compared with `CC[C@@H](CO)Nc1nc(-c2ccc(Br)cc2)cs1`, `CCOC(=O)Cc1cccc(-c2nc(CCl)c(C)o2)c1` is lower in melting point: 91 to 93 °C for the first, 64 to 65 °C for the second.

Compared with `N#CCC(=O)NCc1ccc(Cl)nc1`, `CCOc1nc(C(=O)O)ccc1C#N` is higher in melting point: 119 °C for the first, 185 to 190 °C for the second.

Compared with `COc1ccc(-c2nc(CCl)nc3cc(OC)c(OC)cc23)cc1OC`, `COc1cc2nc(CN(C)C)nc(Cl)c2cc1OC` is lower in melting point: 183 to 184 °C for the first, 78 to 80 °C for the second.

First: Cc1cc(C#N)cc(C(=O)c2[nH]c(=O)[nH]c(=O)c2C(C)(C)C)c1
Second: Cc1cc2c(c3ccc(=O)[nH]c13)OC(CC(=O)[C@@H](C)N)C2 (some centres undefined)
The melting point of the first is higher: 270 to 271 °C for the first, 222 to 225 °C for the second.

Compared with `CCN(CC)c1nc(N)c2ccccc2n1`, `CC(C)Cc1c2c(nn1Cc1ccccc1)c(N)nc1ccccc12` is higher in melting point: 125 to 128 °C for the first, 194 to 196 °C for the second.

First: O=C(Nc1ccc(N2CCCCC2)cc1)N(C[C@H]1CC[C@H](CN(C(=O)Nc2ccc(N3CCCCC3)cc2)C2CCCCC2)CC1)C1CCCCC1
Second: CCCCCCN(C[C@@H]1CCCC[C@H]1CN(CCCCCC)C(=O)Nc1ccc(N(C)C)cc1)C(=O)Nc1ccc(N(C)C)cc1 (relative stereo)
The melting point of the first is higher: 174 to 178 °C for the first, 112 to 117 °C for the second.

First: CC(=O)NC(Cc1csc2ccccc12)C(CCc1cc(C(F)(F)F)cc(C(F)(F)F)c1)=NO (centres undefined)
Second: CCC#C[C@]1(C(F)(F)F)O[C@@H](c2ccccc2)C(=O)Nc2ccc(Cl)cc21 (relative stereo)
The melting point of the first is higher: 200 to 201 °C for the first, 198 to 199 °C for the second.

First: COC(=O)CN(NC(N)=O)c1cc(C)cc(C)c1
Second: COC(=O)C(C)NC(=O)Cc1cc(C)c(C(=O)c2ccc(Cl)cc2)n1C (centres undefined)
The melting point of the first is lower: 139 to 141 °C for the first, 163 to 165 °C for the second.

Compared with `CN(C)c1ccc2c(c1)NC(=O)CC2`, `COc1cc2c(cc1OC)C1=NCCc3cccc(c31)C2=O` is higher in melting point: 154 to 156 °C for the first, 228 °C for the second.

Going from `O=C1CCC(N2C(=O)c3cccc(CNC(=O)c4cncnc4)c3C2=O)C(=O)N1` (centres undefined) to `COc1ccc2ccc(N3C(=O)c4ccccc4C3OC(=O)CCCC(C)C)nc2n1` (centres undefined), the melting point falls from > 260 °C to 105 °C.

First: CN1C(=O)C(Cc2ccccc2)N(C)C(=O)C1=Cc1c(C#N)ccc(F)c1F (centres undefined)
Second: O=Cc1ccc(OCCCc2ccccc2)c([N+](=O)[O-])c1
The melting point of the first is higher: 175 °C for the first, 82.5 °C for the second.

Compared with `COc1ccc([C@@H]2[C@@H](CCCBr)C(=O)N2c2ccc(OC)cc2)cc1`, `CCc1nn(-c2ccc(C(=N)N)cc2)c(=O)n1-c1ccc(CCC(=O)O)cc1` is higher in melting point: 70 to 73 °C for the first, > 250 °C for the second.

First: CCN(CC)C(=S)n1cc(F)c(/N=C/N(C)C)nc1=O
Second: CCNc1c(C(=O)OCC)c(C)nc(OCC)c1[N+](=O)[O-]
The melting point of the first is higher: 118 to 123 °C for the first, 40 to 42 °C for the second.

First: OCC1OC(n2cnc3c(NCc4ccc5ccc6cccc7ccc4c5c67)ncnc32)C(O)C1O (centres undefined)
Second: c1ccc([C@H]2C[C@@H]2Nc2cc(-c3ccco3)nc(-c3nccs3)n2)cc1 (relative stereo)
The melting point of the first is higher: 144 °C for the first, 90 to 91.9 °C for the second.

First: O=C1c2c(O)ccc(O)c2C(=O)c2c(NCCN(CCO)C(=O)C(F)(F)F)ccc(NCCN(CCO)C(=O)C(F)(F)F)c21
Second: CC(CCc1ccc(F)cc1)NCc1c(CO)ccc(O)c1CO (centres undefined)
The melting point of the first is higher: 162 °C for the first, 101 to 103 °C for the second.

First: CCCCCc1ccc(C(=O)NC2N=C(c3ccccc3)c3ccccc3NC2=O)cc1 (racemic)
Second: COc1cc2c(cc1OC)CN(CCCc1ccc(NC(=O)c3cccc4c(=O)c5cccc(C)c5[nH]c34)cc1)CC2
The melting point of the first is higher: 203 to 205 °C for the first, 120 °C for the second.

First: CCn1nc2c(N)nc3c(c2c1CCC1CCCCC1)CCCC3
Second: CCCCCCCCCCCCc1ccc2nc3c(c(Cl)c2c1)CCCC3
The melting point of the first is higher: 177 to 179 °C for the first, 36 to 38 °C for the second.

First: CCNc1cccnc1N1CCN(C(=O)c2ccc(C(=O)OC)cn2)CC1
Second: CCN1CCc2ccc(Nc3ncc(Cl)c(N[C@H]4CCC[C@H]4C(N)=O)n3)cc2CC1 (relative stereo)
The melting point of the first is lower: 80 to 81 °C for the first, 237 to 242 °C for the second.

Compared with `CCCN1Cc2cncn2C(c2ccc(C#N)cc2)C1=O` (centres undefined), `Cc1nn(-c2ccccn2)c2[nH]c3ccc(N)cc3c(=O)c12` is higher in melting point: 97 to 98 °C for the first, 260 to 262 °C for the second.

Compared with `CNC(=O)c1cc2cc(S(N)(=O)=O)sc2s1`, `CC(=O)Nc1nc(C)c(S(=O)(=O)NN2CCN(C)CC2)s1` is lower in melting point: 272 to 273 °C for the first, 245 °C for the second.

First: Fc1cc2c(cc1F)C(Cl)Cc1ccccc1S2 (centres undefined)
Second: Cc1onc(-c2ccc(Cl)o2)c1-c1ccccc1
The melting point of the first is lower: 68 to 71 °C for the first, 71 to 73 °C for the second.

Compared with `CC(C)=CCC1(C(F)(F)F)C(=O)NC(=O)NC1=O`, `CCCCN1C(=O)NC(CCC(=O)O)C1=O` (centres undefined) is lower in melting point: 150 to 153 °C for the first, 130 °C for the second.

Compared with `COc1cc2nc(-c3cccs3)cc(C(=O)O)c2cc1OC`, `COc1ccccc1-c1cccc2nc(Nc3cc(OC)c(OC)c(OC)c3)oc12` is lower in melting point: 260 to 263 °C for the first, 185 to 187 °C for the second.

First: Cc1[nH]c(=O)ccc1C(=O)c1cccs1
Second: CN(C1c2cc(O)ccc2OC(C)(C)C1O)S(C)(=O)=O (centres undefined)
The melting point of the first is higher: 227 to 228 °C for the first, 204 to 206 °C for the second.

Compared with `O=C(O)C1=CCCCC1C(=O)O` (centres undefined), `C=CCC(C)(C)C(=O)NC1CCCNC(=O)C1` (centres undefined) is lower in melting point: 201 to 203 °C for the first, 71 to 72 °C for the second.

First: Cc1ccc(-c2ccc(Cl)c(C(=O)NCC34CC5CC(CC(C5)C3)C4)c2)nc1C(=O)O
Second: CC(=O)NC[C@H]1CN(c2ccc(N3CCC4(CC3)CS4)c(F)c2)C(=O)O1
The melting point of the first is higher: 180 to 185 °C for the first, 152 to 154 °C for the second.

First: CC(Cc1ccc(OCc2ccncc2)cc1)NCC(O)c1cccc(Cl)c1 (centres undefined)
Second: CCOC(=O)/C=C/C(=C(c1ccc(F)cc1)c1ccc(F)cc1)C(C)C
The melting point of the first is higher: 85 to 110 °C for the first, 66 to 67 °C for the second.

Compared with `CCc1nn2c(c1Oc1cc(Cl)cc(Cl)c1)C(=O)NCC2`, `Cc1c(Br)c2ccccn2c1C(=O)c1cc(Cl)c(O)c(Cl)c1` is higher in melting point: 220 to 223 °C for the first, 240 °C for the second.

First: CC(C#N)N1CCC(C(=O)c2ccc(F)cc2)CC1 (centres undefined)
Second: CC(C)(C)OC(=O)N1CCC2(CC1)CC(c1ccc(Cl)cc1)=NO2
The melting point of the first is lower: 127 °C for the first, 138 to 141 °C for the second.

First: CCN1C(=O)C(C)(C)C(=O)N(C)c2cc(CN(CCn3ccc4oc(C)cc4c3=O)Cc3cccnc3COC)ccc21
Second: CCOCCc1c(N=[N+]=[N-])nc(NC(=O)NCC(=O)O)nc1-c1ccccc1
The melting point of the first is lower: 127 to 129 °C for the first, 160 °C for the second.

Compared with `CC(CO)CCCC(C)C1CCC2C3CC=C4C(C)(C)C(O)CCC4(C)C3CCC12C` (centres undefined), `CC1(C)CC(Nc2nc(NC3CC(C)(C)NC(C)(C)C3)nc(N(CO)C3CC(C)(C)NC(C)(C)C3)n2)CC(C)(C)N1` is higher in melting point: 174 to 175 °C for the first, 201 to 202 °C for the second.

First: COC(=O)CCCCCNC(=O)/C=C/C=C/c1ccccc1
Second: Oc1ccccc1OCC1NCCS1 (centres undefined)
The melting point of the first is higher: 125 to 127 °C for the first, 76 to 78 °C for the second.

First: CC(C)=CCC/C(C)=C/CC/C(C)=C/C(N)=O
Second: CCOC(=O)Nc1c(Cl)cc2nc(O)c(O)nc2c1[N+](=O)[O-]
The melting point of the first is lower: 53 to 53.5 °C for the first, > 300 °C for the second.

With `BrCCc1cc(Br)c(CCBr)cc1Br` the melting point was 106 to 108 °C.
